Laboratory results as given in publication PMC12389006, “In Vitro and In Vivo Evaluation of Alectinib-Loaded Dendrimer Nanoparticles as a Drug Delivery System for Non-Small Cell Lung Carcinoma” (Pharmaceutics, 2025).
Where two headings read alike, the source gives them in different places.

How the values were obtained:
[1] = In vitro drug release, dialysis method in PBS; type: physicochemical; details: pH 6.8 PBS, 1.5% SLS, 37 °C
Procedure: In vitro drug release studies were performed using the dialysis method. A drug release study was conducted in vitro to measure the amount of drug released from the complex. […] The dissolution study was conducted using the USP II apparatus (paddle) under the following conditions: a stirring speed of 100 rpm, a temperature of 37.0 ± 0.5 °C, and volume of release media of 200 mL. The NP samples were placed in a plastic tube sealed with a dialysis membrane with a molecular weight cut-off (MWCO) of 14,000 Da, which was previously soaked in either buffer for 24 h. […] At predetermined time intervals, 1 mL aliquots were withdrawn and promptly replaced with fresh media. The collected samples were filtered by a 0.22 µm filter membrane and were subsequently injected into the HPLC system at a wavelength of 340 nm.

[2] = test system: A549 lung cancer cell line; assay: MTT cytotoxicity assay; type: cell-based; details: Homo sapiens, A549, 72 h
Procedure: The A549 cell line, composed of human alveolar basal epithelial adenocarcinoma cells, was used for the in vitro evaluation. Cells were obtained from ATCC through the Faculty of Pharmacy […] University. To maintain the A549 lung cancer cell line, Roswell Park Memorial Institute (RPMI) was employed. The medium was supplemented with 2 mL of L-glutamine, 50 mL of fetal bovine serum (FBS), and 5 mL of penicillin-streptomycin. The frozen A549 cell vials, stored in liquid nitrogen at approximately -196 °C, were quickly thawed at 37 °C in a water bath. The contents were then diluted with 10 mL of pre-warmed media and then centrifuged at 1500 rpm for 10 min. After discarding the supernatant, the tube was gently agitated to disperse the cells, and fresh medium (15 mL) was added. […] Their confluency level was maintained within the ideal range of 80-90%. To assess cell viability, a 1:1 mixture of 50 μL of Trypan blue stain and 50 μL of cell solution was prepared in an Eppendorf tube. Then, 5 × 10^3 cells were inoculated into individual wells of 96-well microplates using 100 μL of medium. […] Negative control wells received 0.1% DMSO, while blank wells were filled with RPMI medium without cells. […] The absorbance of the formazan solution in each well was promptly quantified at 590 nm utilizing a 96-well plate reader manufactured by Biotech, and the IC50 values were calculated according to Equation (2).

A549 cells [3] = assay: Scratch-wound assay for cell migration; type: cell-based, human; details: A549, 72 h
Procedure: After the cells reached full confluence and formed a uniform monolayer, a scratch approximately 1 mm wide was created across the cell layer using a sterile 200 μL micropipette tip. The wells were then gently washed with phosphate-buffered saline (PBS) to remove cellular debris. […] To evaluate wound closure, images of the scratch area were captured at the start of the experiment (0 h) and after 72 h of treatment. Image analysis was performed using ImageJ® software (version 1.4.3.67, Symmetry Software) to measure the wound area and assess cell migration quantitatively

[4] = test system: H460 large lung cancer cells; type: in vivo; details: H460 xenograft mice, 20 mg/kg
Procedure: This study involved 24 male BALC mice, aged 5 weeks and weighing 20 ± 2 g, housed under controlled environmental conditions (temperature: 25.2 °C, humidity: 60 ± 5%, 12 h light–dark cycle) with ad libitum access to standard rodent chow and autoclaved water. […] Human lung large-cell carcinoma (H460) cells were cultured in RPMI 1640 medium, prepared through trypsinization and centrifugation, and underwent viability testing with Trypan blue exclusion, then were suspended in ECM Matrigel®. After 21 days of immunosuppression with 5 mg/kg dexamethasone administered intraperitoneally each mouse was subcutaneously injected in the right flank with 2.5 × 10^6 viable H460 cells. Tumor growth was monitored for 14 days using caliper measurements.
To establish an immunosuppressed xenograft model, dexamethasone (5 mg/kg) was administered to all mice for 21 days to suppress their immune response (Figure S8). Following immunosuppression, 2.5 × 10^6 H460 large lung cancer cells were subcutaneously injected into the mice, and tumor growth was monitored every day.

[5] = Pharmacokinetic study in rats, LC-MS/MS of plasma; type: in vivo, Wistar rats; details: rat, 20 mg/kg oral; for AUC0-t: 20 mg/kg
Procedure: Quantification and identification of Alectinib were performed using liquid chromatography coupled with mass spectrometry (LC/MS), employing rosuvastatin as the internal standard (IS). […] Detection was carried out with an API-3000 triple quadrupole mass spectrometer (LCMS-2010A, Shimadzu, Japan) featuring an electrospray ionization (ESI) source operated in positive ion mode. […] Detection was achieved using multiple reaction monitoring (MRM) for specific m/z transitions. […] Prior to the experiment, the animals were fasted overnight with free access to water and were marked on the tail for individual identification. The rats were randomly divided into two groups. […] Blood samples were collected from the tail after warming for 30 s using a hot pad to facilitate sampling. […] Sample preparation was carried out using the liquid–liquid extraction (LLE) technique. Frozen plasma samples were thawed at room temperature, vortexed to ensure uniform mixing, and combined with 500 µL acetonitrile (ACN) as diluent, 300 µL plasma, and 50 µL rosuvastatin as the internal standard. The mixture was vortexed for 2 min, centrifuged at 4000 rpm for 15 min, and 200 µL of the supernatant was transferred into LC-MS insert vials. Subsequently, 20 µL of the processed sample was analyzed using LC-MS/MS for quantification and pharmacokinetic evaluation.

[6] = design: method as in PMID 36015320; details: cited from earlier work
[7] = design: method as in PMID 36015320; details: cited from earlier work; remark: listed apart in the source
KARPAS 299 = details: cited from earlier work
nB1 (neuroblastoma) = details: cited from earlier work
NCI-H2228 (lung cancer) = details: cited from earlier work
[8] = test system: resistance-induced overexpressed TGF-α HGF cells; design: method as in PMID 31857951; details: cited from earlier work
A549 cells [9] = test system: A549 cells; design: method as in Ata et al.; details: ref Ata et al.; cited from earlier work
[10] = pH 1.2 and 2.5; cited from earlier work

For `CCc1cc2c(cc1N1CCC(N3CCOCC3)CC1)C(C)(C)c1[nH]c3cc(C#N)ccc3c1C2=O.Cl` [Alectinib, 9-ethyl-6,6-dimethyl-8-[4-(morpholine-4-yl)piperidin-1-yl]-11-oxo-6,11-dihydro-5H-benzo[b]carbazole-3-carbonitrile hydrochloride], which “Alectinib released over 48 h” value [1] is on record?
The value was 11.1% ± 0.11.

What about the IC50 [2] of the same compound?
Its IC50 is 4190 nM.

What about the “scratch assay outcome in words” value (A549 cells [3]) of the same compound?
Its value is “completely eradicated the cells”.

What about the “tumor outcome in words after 17 days of treatment” value [4] of the same compound?
The value was “minimal amount of residual tumor tissue”.

What about the “tumor regression / reduction after 17 days of treatment” value [4] of the same compound?
Its value is 75%.

And the AUC(0-inf) ([5]; male, Wistar, plasma)?
Its AUC(0-inf) is 11800 ng·h/mL.

What about the half-life ([5]; male, Wistar, plasma) of the same compound?
The half-life was 15.4 ± 1.6 h.

And the k el ([5]; male, Wistar, plasma)?
Its k el is 1.25e-05 s⁻¹.

What about the AUC0-t ([5]; male, Wistar, plasma, po, read-out: AUC0-t) of the same compound?
The AUC0-t was 9840 ng·h/mL.

And the C-max [5]?
The C-max was 313.83 ± 150.83 ng/mL.

What about the T-max [5] of the same compound?
Its T-max is 9.33 ± 1.1 h.

What about the “absorption rate constant (Ka)” value ([5]; assumption of linear absorption) of the same compound?
Its value is 0.43 h⁻¹.

What about the AUC0-t ([5]; listed as Free Alectinib) of the same compound?
The AUC0-t was 9842.03 ± 3986 ng·h/mL.

What about the permeability [6] of the same compound?
The permeability was 250 ×10⁻⁶ cm/s.

What about the absolute bioavailability [7] of the same compound?
The absolute bioavailability was 37%.

And the IC50 (KARPAS 299)?
The IC50 was 3 nM.

And the IC50 (nB1 (neuroblastoma))?
Its IC50 is 4.5 nM.

And the IC50 (NCI-H2228 (lung cancer))?
Its IC50 is 53 nM.

What about the IC50 [8] of the same compound?
Its IC50 is 38.2 nM.

What about the IC50 (A549 cells [9]) of the same compound?
Its IC50 is 9.63 µg/mL.

What about the “stability at low pH” value [10] of the same compound?
The value was “degradation of Alectinib at low pH”.
